The source of these data is patent US20100048549A1, “Peptidomimetics selective for the somatostatin receptor subtypes 1 and/or 4” (priority 2005, published 2010).

Where a name gives a salt, the structure may show the parent alone. Read-outs that look alike come from different tables or passages of the source.

Experiment [1] addresses T1, human somatostatin receptor subtype sst1 (Homo sapiens, UniProt P30872).
T1 construct: expressed in transfected cells; host or cells: CHO cells (membranes)
Put plainly: Competition binding with 125I-LTT-SRIF-28, CHO cell membranes, sst1. On the procedure: (§1) The affinity of the compounds of the invention for the five human somatostatin receptor subtypes (sst1, sst2, sst3, sst4, and sst5) was determined in competition binding assays with (^125I-Tyr)-[Leu^8, DTrp^22]-Somatostatin-28 (^125I-LTT-SRIF-28). The biological material for these experiments consisted of membranes from Chinese hamster ovary (CHO) cells stably transfected with one of the five human somatostatin receptor subtypes. Membranes (3-20 μg of total protein per sample) and trace amount of ^125I-LTT-SRIF-28 were incubated in 10 mM Hepes, 1 mM EDTA, 5 mM MgCl2, 5 mg/ml of BSA and 30 μg/ml bacitracin, pH 7.6, with six concentrations of the compounds. Each concentration was run in duplicate. Nonspecific binding was defined by 1 μM somatostatin-14 (SRIF-14) and corresponded to 5-25% of total binding. After 60 min at room temperature, incubations were terminated by rapid vacuum filtration through GF/B glass fiber filter mats (presoaked at 4° C. in 200 ml of 10 mM Hepes, 1 mM EDTA, 5 mM MgCl2, pH 7.6) and three 5 ml washes with ice-cold wash buffer (20 mM TRIS, 1 mM EDTA, 5 mM MgCl2, pH 7.4). The filters were then dried, impregnated with scintillate and their radioactivity was measured by scintillation counting. The analysis of the experiments was carried out by nonlinear least square curve fitting. Affinity constants (Ki) were calculated from the IC50 values according to the Cheng-Prusoff's equation (Cheng and Prusoff, 1973). Experiments were repeated a minimum of three times.

In experiment [2] the target is T2, human somatostatin receptor subtype sst5 (Homo sapiens, UniProt P35346).
T2 construct: expressed in transfected cells; host or cells: CHO cells (membranes)
Kind of experiment: Competition binding with 125I-LTT-SRIF-28, CHO cell membranes, sst5. To be noted: membranes of CHO cells transfected with human sst5. The procedure: as §1, with “The analysis of the experiments was carried out by nonlinear least square curve fitting.” left out, “Experiments were repeated a minimum of three times.” left out

Experiment [3] deals with T3, human somatostatin receptor subtype sst2 (Homo sapiens, UniProt P30874).
T3 construct: expressed in transfected cells; host or cells: CHO cells (membranes)
Put plainly: Competition binding with 125I-LTT-SRIF-28, CHO cell membranes, sst2. The following applies: membranes of CHO cells transfected with human sst2. The procedure:
as §1, with “The analysis of the experiments was carried out by nonlinear least square curve fitting.” left out, “Experiments were repeated a minimum of three times.” left out

Experiment [4] has as its target T4, human somatostatin receptor subtype sst3 (Homo sapiens, UniProt P32745).
T4 construct: expressed in transfected cells; host or cells: CHO cells (membranes)
Kind of experiment: Competition binding with 125I-LTT-SRIF-28, CHO cell membranes, sst3. To be noted: membranes of CHO cells transfected with human sst3. On the procedure: as §1, with “The analysis of the experiments was carried out by nonlinear least square curve fitting.” left out, “Experiments were repeated a minimum of three times.” left out

In experiment [5] the target is T5, human somatostatin receptor subtype sst4 (Homo sapiens, UniProt P31391).
T5 construct: expressed in transfected cells; host or cells: CHO cells (membranes)
Put plainly: Competition binding with 125I-LTT-SRIF-28, CHO cell membranes, sst4. The procedure:
as §1

The conditions of experiment [6]: clinical trials; Eriksen et al. 1995, van Essen et al. 1997; cited from earlier work.
The mark [7] stands for this setting: membranes of CHO cells transfected with human sst1, read-out: sst1 Ki.
The mark [8] stands for this setting: membranes of CHO cells transfected with human sst4, read-out: sst4 Ki.
Setting [9] is: bound only, read-out: Ki values for the sst1.
Setting [10] is: bound only, read-out: Ki values for the sst4.

T1 sequence (P30872 whole entry): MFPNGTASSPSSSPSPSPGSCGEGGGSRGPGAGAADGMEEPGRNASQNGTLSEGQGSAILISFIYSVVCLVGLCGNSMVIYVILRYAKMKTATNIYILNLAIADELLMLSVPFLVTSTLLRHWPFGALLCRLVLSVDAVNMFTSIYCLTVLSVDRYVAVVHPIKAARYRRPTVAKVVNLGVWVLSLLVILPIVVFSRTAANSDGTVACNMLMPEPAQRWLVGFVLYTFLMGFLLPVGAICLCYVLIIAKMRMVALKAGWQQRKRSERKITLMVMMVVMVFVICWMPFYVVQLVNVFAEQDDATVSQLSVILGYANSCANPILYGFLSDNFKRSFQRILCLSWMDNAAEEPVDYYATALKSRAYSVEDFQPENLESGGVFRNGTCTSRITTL
T5 sequence (P31391 whole entry): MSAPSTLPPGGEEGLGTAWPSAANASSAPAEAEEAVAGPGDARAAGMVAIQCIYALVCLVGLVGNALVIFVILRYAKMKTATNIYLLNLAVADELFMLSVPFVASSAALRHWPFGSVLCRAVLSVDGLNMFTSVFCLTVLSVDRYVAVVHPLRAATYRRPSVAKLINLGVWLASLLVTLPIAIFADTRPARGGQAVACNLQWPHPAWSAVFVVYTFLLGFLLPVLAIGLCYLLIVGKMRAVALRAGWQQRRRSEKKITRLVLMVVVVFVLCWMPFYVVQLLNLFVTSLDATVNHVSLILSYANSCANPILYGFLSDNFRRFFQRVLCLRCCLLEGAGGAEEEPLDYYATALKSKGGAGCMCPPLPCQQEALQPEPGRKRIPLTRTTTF
T2 sequence (P35346 whole entry): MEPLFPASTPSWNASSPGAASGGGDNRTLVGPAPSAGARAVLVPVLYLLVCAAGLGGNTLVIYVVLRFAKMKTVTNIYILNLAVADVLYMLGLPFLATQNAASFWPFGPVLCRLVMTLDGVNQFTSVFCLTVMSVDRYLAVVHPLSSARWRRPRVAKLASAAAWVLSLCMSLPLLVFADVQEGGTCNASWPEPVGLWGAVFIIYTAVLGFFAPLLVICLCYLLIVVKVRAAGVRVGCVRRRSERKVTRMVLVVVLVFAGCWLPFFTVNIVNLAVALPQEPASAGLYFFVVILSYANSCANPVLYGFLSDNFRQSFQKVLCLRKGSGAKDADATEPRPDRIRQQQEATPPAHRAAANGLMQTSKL
T3 sequence (P30874 whole entry): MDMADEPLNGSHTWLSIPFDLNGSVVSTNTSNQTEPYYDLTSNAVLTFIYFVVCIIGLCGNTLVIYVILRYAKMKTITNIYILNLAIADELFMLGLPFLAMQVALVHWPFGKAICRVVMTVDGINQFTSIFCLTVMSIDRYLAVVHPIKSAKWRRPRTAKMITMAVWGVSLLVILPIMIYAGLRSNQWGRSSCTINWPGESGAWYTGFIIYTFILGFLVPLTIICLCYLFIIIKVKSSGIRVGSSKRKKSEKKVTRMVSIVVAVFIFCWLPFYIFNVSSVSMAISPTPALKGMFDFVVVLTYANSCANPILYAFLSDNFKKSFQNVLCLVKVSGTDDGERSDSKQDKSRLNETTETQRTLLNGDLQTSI
T4 sequence (P32745 whole entry): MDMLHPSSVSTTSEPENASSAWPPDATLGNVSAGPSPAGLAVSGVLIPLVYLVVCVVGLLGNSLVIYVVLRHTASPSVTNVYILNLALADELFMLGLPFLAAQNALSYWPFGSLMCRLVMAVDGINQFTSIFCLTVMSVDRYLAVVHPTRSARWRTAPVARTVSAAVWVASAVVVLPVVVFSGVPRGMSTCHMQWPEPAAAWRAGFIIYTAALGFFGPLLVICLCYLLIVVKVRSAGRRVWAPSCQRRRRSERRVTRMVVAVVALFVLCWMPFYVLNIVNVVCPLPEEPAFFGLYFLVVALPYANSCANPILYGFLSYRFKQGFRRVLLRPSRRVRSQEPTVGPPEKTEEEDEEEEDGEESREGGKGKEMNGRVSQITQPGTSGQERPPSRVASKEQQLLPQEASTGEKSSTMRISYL

For `Cc1ccc(S(=O)(=O)N[C@@H](CCN)CNCc2ccccc2)c2ccccc12` [compound 2, (S)-4-methylnaphthalene-1-sulfonic acid (3-amino-1-benzyl-aminomethylpropyl)amide], the Ki (as a rule, the equilibrium dissociation constant of an inhibitor or competing ligand from its target) in experiment [1] (setting [7]) is 200 ± 60 nM; in experiment [2] it was above 3 µM; in experiment [3] it was above 10 µM; in experiment [4] it was above 3 µM; in experiment [5] (setting [8]) it was 5.6 ± 3.2 nM.
Take `CC(C)[C@@H]1NC(=O)[C@H](CCCCN)NC(=O)[C@@H](Cc2c[nH]c3ccccc23)NC(=O)[C@H](Cc2ccc(O)cc2)NC(=O)[C@@H](NC(=O)[C@H](N)Cc2ccc3ccccc3c2)CSSC[C@@H](C(=O)N[C@H](C(N)=O)[C@@H](C)O)NC1=O` [lanreotide]: the “efficacy in prevention of restenosis” value in experiment [6] is on record as “failed to show efficacy”.
In the case of `Cc1ccc(S(=O)(=O)N[C@@H](CNCCN(C)C)COCc2ccccc2)c2ccccc12` [compound 27, (S)-4-methylnaphthalene-1-sulfonic acid {2-benzyloxy-1-[(2-dimethylaminoethylamino)methyl]ethyl}amide], the Ki in experiment [1] (setting [9]) and in experiment [5] (setting [10]) was below 300 nM each time.
Turning to `Cc1ccc(S(=O)(=O)N[C@@H](CCNC(=N)N)COCc2ccccc2)c2ccccc12` [compound 4, (S)-4-methylnaphthalene-1-sulfonic acid (1-benzyloxymethyl-3-guanidinylpropyl)amide], the Ki in experiment [1] (setting [9]) and in experiment [5] (setting [10]) was below 300 nM each time.
On to `Cc1ccc(S(=O)(=O)N[C@@H](CCCN)COc2ccccc2)c2ccccc12` [compound 13, (S)-4-methylnaphthalene-1-sulfonic acid (4-amino-1-phenoxymethylbutyl)amide], for which the Ki in experiment [1] (setting [9]) and in experiment [5] (setting [10]) was below 300 nM in each case.
In the case of `C[C@@H](O)[C@@H]1NC(=O)[C@H](CCCCN)NC(=O)[C@@H](Cc2c[nH]c3ccccc23)NC(=O)[C@H](Cc2ccccc2)NC(=O)[C@@H](NC(=O)[C@H](N)Cc2ccccc2)CSSC[C@@H](C(=O)N[C@H](CO)[C@@H](C)O)NC1=O` [octreotide], in experiment [6], the “efficacy in prevention of restenosis” value is listed as “failed to show efficacy”.
Turning to `Cc1ccc(S(=O)(=O)N[C@@H](CCNC2=NCCN2)COCc2ccccc2)c2ccccc12` [compound 79, (S)-4-methylnaphthalene-1-sulfonic acid [1-benzyloxymethyl-3-(4,5-dihydro-1H-imidazol-2-ylamino)propyl]amide formic acid salt], the inhibitory constant (Ki) in experiment [1] (setting [9]) and in experiment [5] (setting [10]) was below 300 nM in each case.
Take `Cc1ccc(S(=O)(=O)NC(COCc2ccccc2)CC2CCCN2)c2ccccc12` (stereo not shown) [compound 32, 4-methylnaphthalene-1-sulfonic acid (1-benzyloxymethyl-2-pyrrolidin-2-ylethyl)amide]: the Ki in experiment [1] (setting [9]) and in experiment [5] (setting [10]) was below 300 nM in each case.
For `Cc1ccc(S(=O)(=O)N[C@@H](CCCNC(C)C)COc2ccccc2)c2ccccc12` [compound 33, (S)-4-methylnaphthalene-1-sulfonic acid (4-isopropylamino-1-phenoxymethylbutyl)amide], the Ki in experiment [1] (setting [9]) was below 300 nM; in experiment [1] (setting [7]), 9.6 ± 0.5 nM; in experiment [2] it was above 3 µM; in experiment [3], above 10 µM; in experiment [4], above 3 µM; in experiment [5] (setting [10]), below 300 nM. In addition, the Ki in experiment [5] (setting [8]) stood at 110 ± 10 nM.
`Cc1ccc(S(=O)(=O)N[C@@H](CCCNC(C)C)COCc2ccccc2)c2ccccc12` [compound 62, (S)-4-methylnaphthalene-1-sulfonic acid (1-benzyloxymethyl-4-isopropylaminobutyl)amide]: the Ki in experiment [1] (setting [9]) and in experiment [5] (setting [10]) was below 300 nM throughout.
With `Cc1ccc(S(=O)(=O)N[C@H](CCN)COCc2ccccc2)c2ccccc12` [compound 64, (R)-4-methylnaphthalene-1-sulfonic acid (3-amino-1-benzyloxymethylpropyl)amide], the Ki in experiment [1] (setting [9]) and in experiment [5] (setting [10]) was below 300 nM each time.
For the compound `CCC(CC)NCCC[C@@H](COc1ccccc1)NS(=O)(=O)c1ccc(C)c2ccccc12` [compound 14, (S)-4-methylnaphthalene-1-sulfonic acid [4-(1-ethylpropylamino)-1-phenoxymethylbutyl]amide], in experiment [1] (setting [9]), the Ki was below 300 nM.
As for `Cc1ccc(S(=O)(=O)N[C@@H](CCCN)COCc2ccccc2)c2ccccc12` [compound 15, (S)-4-methyl-naphthalene-1-sulfonic acid (4-amino-1-benzyloxymethylbutyl)amide], the Ki in experiment [1] (setting [9]) and in experiment [5] (setting [10]) was below 300 nM each time.
